According to paper PMC8231170, “Biphenylalkoxyamine Derivatives–Histamine H3 Receptor Ligands with Butyrylcholinesterase Inhibitory Activity” (Molecules, 2021):
“Also recorded” adds a separate entry of the source.

How the values were obtained:
[1] = up to 10 µM; cited from earlier work
BuChE from equine serum = biological target: T1, BuChE from equine serum (Equus caballus, UniProt P81908); experiment: eqBuChE inhibition, Ellman's method; assay type: biochemical
T1 construct: AChE was obtained from electric eel and BuChE from equine serum; purchased Sigma Aldrich; host or cells: equine serum (natural source)
Method: The inhibitory activities of the tested compounds against cholinesterases were evaluated by Ellman’s method. AChE was obtained from electric eel and BuChE from equine serum. […] Inhibitory activities of the tested compounds against cholinesterases were measured using a spectrophotometric method modified for 96-well microplates as described recently.
First, all compounds were screened at the concentration of 10 μM. […] Then, the percent of inhibition of tested enzymes for each compound was calculated. […] Each concentration was measured in triplicate. All calculations were made using nonlinear regression GraphPad Prism 5 (GraphPad Software, San Diego, CA, USA).

[2] = test system: mouse model of scopolamine-induced memory impairments; experiment: step-through Passive Avoidance Task; assay type: in vivo; conditions: mice
Method: This procedure was created for studying short-term memory as well as long-term memory. The paradigm requires the rodents to behave contrary to their innate preference for dark areas and for avoiding bright ones.
The experiments were carried out on adult male Albino Swiss mice (CD-1, 18–25 g). […] Experimental groups consisted of 6–12 animals, all the animals were used only once and they were killed by cervical dislocation immediately after the assay. Behavioral measures were scored by trained observers, which were blind to experimental conditions. Treatment of laboratory animals in the present study was in full accordance with the respective Polish regulations.
Control animals (negative control) were given an appropriate amount of vehicle (1% aqueous solution of Tween 80; i.p.) 30 min before the test.
The task was performed according to the method described previously. Briefly, the test was conducted in the apparatus with two compartments (LE872, Bioseb, France). The illuminated white compartment (20 cm × 21 cm × 20 cm, 1000 lx) was separated by an automated sliding gate with the smaller dark compartment (7.3 cm × 7.5 cm × 14 cm, 10 lx) equipped with an electric grid floor. For acquisition session, mice were first placed individually in the white compartment and after 30 s the gate to the smaller compartment was opened. Immediately after entering into the dark compartment, the gate was closed and the mouse was punished by an unavoidable electric foot shock (0.8 mA for 2 s). […] Next day (24 h later), the pretested animals were placed again into the bright compartment. […] The latency time to cross through the gate between the compartments was measured.

histamine receptors: H1 = conditions: cited from earlier work
AChE from electric eel = biological target: T2, AChE from electric eel (Electrophorus electricus, UniProt O42275); experiment: eeAChE inhibition, Ellman's method; assay type: biochemical; conditions: read-out: eeAChE % Inh.
T2 construct: AChE was obtained from electric eel and BuChE from equine serum; purchased Sigma Aldrich; host or cells: electric eel (natural source)
Method: The inhibitory activities of the tested compounds against cholinesterases were evaluated by Ellman’s method. AChE was obtained from electric eel and BuChE from equine serum. Donepezil and rivastigmine were used as reference compounds. […]. Inhibitory activities of the tested compounds against cholinesterases were measured using a spectrophotometric method modified for 96-well microplates as described recently.
[…]. First, all compounds were screened at the concentration of 10 μM. The changes in absorbance were measured at 412 nm, using a microplate reader (EnSpire Multimode; PerkinElmer, Waltham, MA, USA). Then, the percent of inhibition of tested enzymes for each compound was calculated. […] Each concentration was measured in triplicate. All calculations were made using nonlinear regression GraphPad Prism 5 (GraphPad Software, San Diego, CA, USA).

histamine receptors: H4 = conditions: cited from earlier work
eqBuChE = biological target: T3, eqBuChE (Equus caballus, UniProt P81908); experiment: kinetic studies of eqBuChE inhibition; assay type: biochemical; conditions: Lineweaver–Burk and Cornish–Bowden plots, substrate butyrylthiocholine
T3 construct: AChE was obtained from electric eel and BuChE from equine serum; purchased Sigma Aldrich; host or cells: equine serum (natural source)
Method: Moreover, the dissociation constant (Ki), describing the binding affinity between the inhibitor and the enzyme, was determined.
EqBuChE stock solution was diluted with demineralized water prior to use, giving the final concentration of 0.027 U/mL in the wells. […] For each concentration of the target compound, all six BTC solutions were utilized to perform the assays. Vmax and Km values of the Michaelis−Menten kinetics were calculated by nonlinear regression from substrate−velocity curves. Lineweaver-Burk and Cornish-Bowden plots were calculated using linear regression in GraphPad Prism 5 (GraphPad Software, San Diego, CA, USA). Each experiment was performed in triplicate.

[3] = previous in vitro studies; cited from earlier work
human MAO B = biological target: T4, human MAO B (Homo sapiens, UniProt P27338); experiment: fluorometric Monoamine Oxidase assay; assay type: biochemical
T4 construct: purchased Sigma Aldrich M7441
T4 sequence (P27338 1-520): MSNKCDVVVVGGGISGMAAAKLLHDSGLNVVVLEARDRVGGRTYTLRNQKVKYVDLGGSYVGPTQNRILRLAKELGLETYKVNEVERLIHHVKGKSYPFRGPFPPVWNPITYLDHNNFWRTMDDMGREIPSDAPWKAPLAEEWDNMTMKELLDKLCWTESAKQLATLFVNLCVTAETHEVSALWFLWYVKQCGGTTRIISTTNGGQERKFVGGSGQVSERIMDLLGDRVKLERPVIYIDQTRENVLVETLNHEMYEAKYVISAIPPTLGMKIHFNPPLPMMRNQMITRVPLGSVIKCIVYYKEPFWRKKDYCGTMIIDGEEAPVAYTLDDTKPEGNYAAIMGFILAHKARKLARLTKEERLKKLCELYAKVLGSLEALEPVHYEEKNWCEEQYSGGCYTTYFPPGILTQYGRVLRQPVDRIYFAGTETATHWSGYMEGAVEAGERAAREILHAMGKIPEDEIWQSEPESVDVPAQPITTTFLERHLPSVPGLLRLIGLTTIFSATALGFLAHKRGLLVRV
Method: Inhibition of human MAO B (hMAO B) was evaluated using a fluorometric Monoamine Oxidase assay as we described previously.
Inhibition of hMAO B was evaluated using fluorometric Monoamine Oxidase assay as described by Łażewska et al.. Recombinant MAO B was purchased from Sigma Aldrich (M7441). […] The assay was carried out in 96-well plate. Tested compounds dissolved in DMSO (1 μM) were added to wells that contained 98 µL of enzyme dilution (1 µg/well) in phosphate buffer (50 mM, pH 7.4). […] An enzymatic reaction started following addition of para-tyramine solution (200 μM). […] Each experiment was performed in duplicate.

[4] = biological target: Fatty Acid Amide Hydrolase from rat brain membranes; conditions: read-out: rFAAH IC50; cited from earlier work
[5] = biological target: human butyrylcholineserase; conditions: read-out: hBuChE IC50; cited from earlier work
[6] = biological target: human acetylcholinesterase; conditions: read-out: hAChE IC50; cited from earlier work

T3 sequence (P81908 whole entry): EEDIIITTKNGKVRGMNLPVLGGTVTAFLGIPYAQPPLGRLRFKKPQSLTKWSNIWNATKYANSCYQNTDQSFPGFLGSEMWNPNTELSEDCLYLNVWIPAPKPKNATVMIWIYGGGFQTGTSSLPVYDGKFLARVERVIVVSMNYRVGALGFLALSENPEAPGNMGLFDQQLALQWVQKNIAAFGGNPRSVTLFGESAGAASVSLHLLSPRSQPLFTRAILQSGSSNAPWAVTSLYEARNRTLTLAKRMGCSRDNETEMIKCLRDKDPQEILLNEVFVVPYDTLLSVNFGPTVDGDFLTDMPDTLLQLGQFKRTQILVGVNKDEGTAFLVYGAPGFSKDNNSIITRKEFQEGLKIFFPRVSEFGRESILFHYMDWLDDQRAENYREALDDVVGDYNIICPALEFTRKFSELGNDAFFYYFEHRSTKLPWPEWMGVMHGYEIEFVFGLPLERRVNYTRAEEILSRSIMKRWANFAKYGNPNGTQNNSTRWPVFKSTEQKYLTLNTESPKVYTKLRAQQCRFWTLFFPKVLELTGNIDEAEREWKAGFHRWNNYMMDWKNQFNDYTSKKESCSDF
T1 sequence (P81908 whole entry): as above
T2 sequence (O42275 24-633): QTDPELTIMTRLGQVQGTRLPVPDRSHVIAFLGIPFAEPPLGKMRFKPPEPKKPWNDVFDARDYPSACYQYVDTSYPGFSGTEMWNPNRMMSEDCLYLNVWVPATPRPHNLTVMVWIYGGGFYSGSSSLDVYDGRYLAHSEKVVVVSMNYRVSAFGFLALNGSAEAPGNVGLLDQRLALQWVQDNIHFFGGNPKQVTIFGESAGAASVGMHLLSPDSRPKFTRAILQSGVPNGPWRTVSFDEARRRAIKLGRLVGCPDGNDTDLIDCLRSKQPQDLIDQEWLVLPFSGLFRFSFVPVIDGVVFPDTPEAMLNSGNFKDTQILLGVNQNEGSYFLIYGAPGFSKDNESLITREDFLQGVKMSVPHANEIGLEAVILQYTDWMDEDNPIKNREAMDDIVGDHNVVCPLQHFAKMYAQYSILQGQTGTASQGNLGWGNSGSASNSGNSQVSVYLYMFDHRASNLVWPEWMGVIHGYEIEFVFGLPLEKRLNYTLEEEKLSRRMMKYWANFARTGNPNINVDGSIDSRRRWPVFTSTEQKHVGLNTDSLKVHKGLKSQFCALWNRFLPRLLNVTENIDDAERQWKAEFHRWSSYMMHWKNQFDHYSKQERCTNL

## c1ccc(-c2ccc(OCCCCCN3CCCCCC3)cc2)cc1 [Compound 19, 1-(5-([1,1′-biphenyl]-4-yloxy)pentyl)azepane]
[1]
  mutagenic activity: no mutagenic activity
BuChE from equine serum
  IC50: 590 ± 10 nM
[2]; 1.25 mg/kg i.p. before scopolamine 1 mg/kg
  latency time, retention trial: 93.5 ± 17.4 s
[2]; 2.5 mg/kg i.p. before scopolamine 1 mg/kg
  latency time, retention trial: 119.1 ± 21.2 s
[2]; 5.0 mg/kg i.p. before scopolamine 1 mg/kg
  latency time, retention trial: 129.8 ± 17.8 s
[2]; 10 mg/kg i.p. before scopolamine 1 mg/kg
  activity in retention trial: lower activity
[2]; Passive Avoidance Task, listed as 19 (E153)
  effect on scopolamine-induced memory deficits: effectively alleviated memory deficits caused by scopolamine; also recorded: reversed memory impairments induced by scopolamine
[2]; i.p.
  latency times, acquisition trial: neither scopolamine, nor 19 nor rivastigmine significantly affected latency times
Histamine receptors: H1
  Ki: 1300 nM
AChE from electric eel
  inhibition at 10 µM: 44%
Histamine receptors: H4
  Ki: 21800 nM
eqBuChE
  type of eqBuChE inhibition: mixed type of enzyme inhibition; also recorded: mixed mode of enzyme inhibition
[3]
  blood–brain barrier crossing: crosses the blood–brain barrier (BBB)
Human MAO B
  IC50: 243 ± 73 nM
Human MAO B; at 1 μM, read-out: hMAO B %Inh. (converted)
  inhibition at 1 µM: 54%

## O=C(NCCCCCc1ccccc1)Oc1cccc(Cn2cc(COc3ccc4ccc(=O)oc4c3)nn2)c1 [Compound 2]
[4]
  IC50: 28 nM
[5]
  IC50: 43 nM
[6]
  IC50: 922 nM
